According to patent US11999697B2, “Methods and compositions for inhibition of dihydroorotate dehydrogenase” (OHIO STATE INNOVATION FOUNDATION, priority 2018, dated 2024):

Legend:
[1] = test system: p53 signaling pathway in MOLM13, MV4-11, OCI-AML3; test: Immunoblots for MDM2, p53, p-γH2AX, p21 in AML cell lines; assay type: cell-based; conditions: 1 μM, 24 hours
Experimental: FIGS. 6A-6F show representative data and analysis for the effect of a representative disclosed compound, Cpd3, on the inhibition of MDM2. FIGS. 6A-6C show representative immunoblots for cells following vehicle treatment, treatment with a representative disclosed compound, Cpd3, or treatment with a reference compound, brequinar (indicated as “BQR” in the figures) using methods as described herein above. Briefly, AML cell lines were treated with vehicle, 1 μM Cpd3 or 1 μM BQR for 24 hours. Lysates were prepared and immunoblots were performed for MDM2, p53, p-γH2AX, p21 and GAPDH used as loading controls. […] That is, Cpd3 promotes a p53 response evident by both upregulation of the downstream target p21, with compensatory induction of MDM2. […] These preliminary data validate that Cpd3 is a potent inhibitor of DHODH in AML, and further preclinical development of Cpd3 is warranted.

[2] = test system: NK cell function (MV4-11 targets, normal donor NK cells); test: Antibody dependent cellular cytotoxicity (ADCC) assay by 51Cr release; assay type: cell-based, human; conditions: 1 μM, 4 hours 51Cr release
Experimental: Antibody Dependent Cellular Cytotoxicity (ADCC) Assay by ^51Cr Release: Assessment of NK-cell killing activity was performed using standard 4 hour ^51Cr release (CR) assay. Donor NK cells (effector cells) were isolated from the peripheral blood of normal donors (N=2). MV4-11 cells (target cells) were labeled with radioactive ^51Cr for 1 h at 37° C., washed, and plated in 96 well V-bottom plates at a density of 1×10^4 cells/well. Vehicle or 1 μM Cpd3 was added to either the NKs cells, the MV4-11 cells, or both prior to co-culturing. The ^51Cr labeled MV4-11 cells and NK cells were then co-cultured 25:1 or 12:1 effector to target (E:T) ratio in the presence of antibodies targeting the CD33 surface receptor (B133; B1836858), non-targeting isotype control (B147; B1836847), each at […], or no antibody control. Supernatants were collected after 4 h of co-culture and counted on a Perkin Elmer (Waltham, Mass.) Wizard γ-counter. The percentage of specific cell lysis was determined by: % lysis=100×(ER-SR)/(MR-SR). ER, SR, and MR represent experimental, spontaneous and maximum release. Data were normalized to the untreated control.
Briefly, a chromium (Cr^51) release antibody dependent cellular toxicity assay was carried out with MV4-11 cells (targets) and normal donor NK cells (effectors; N=2). […] Cr^51 release was measured following 4 hours of incubation to determine relative toxicity.

[3] = test system: luciferase-expressing MOLM-13 cells; test: MOLM13 xenograft study, 10 mg/kg; assay type: in vivo, NCG mice; conditions: 10 mg/kg oral gavage, three or five days per week, Days 7 and 14
Experimental: The effect of a representative disclosed compound, Cpd3, on in vivo tumor growth was assessed in a MOLM13 xenograft study. Briefly, male NCG (NOD-Prkdc^em26Cd52//2rg^em26Cd22/NjuCrl) mice (N=12 per group) were given an intravenous injection of 1×10^4 luciferase-expressing MOLM-13 cells. […] Therefore at 3 days post-engraftment (day 0 treatment), mice were injected with luciferin, imaged for leukemia burden, and began dosing with Cpd3 (10 mg/kg daily by oral gavage) or vehicle control (15% ethanol, 30% PEG-400 in PBS). Mice were treated on two different dosing schedules: Cpd3 three days per week (Mon, Wed and Fri) or five days per week (Mon through Fri). Mice on the Mon, Wed, Fri schedule received a vehicle on Tues and Thurs, so that all mice were consistently gavaged five days per week. In addition to day 0, mice were monitored once weekly (days 7 and 14 post-treatment) by IVIS imaging. In order to assess tumor burden, mice were injected with luciferin and imaged on an IVIS imager Days 0, 7, and 14. […] The data for tumor burden at Day 7 (FIG. 11B) and Day 14 (FIG. 11C) is summarized in bar graph format.

[4] = test system: primary human AML cells; test: CyTOF analysis of neutrophil differentiation; assay type: cell-based; conditions: 0.5 μM, 7 days, cytokine supplemented media
Experimental: CyTOF analysis: primary human AML cells were treated with vehicle (DMSO) or Cpd3 (0.5 μM) in the presence of cytokine supplemented media for 7 days. Cells were then incubated with 5-Iodo-2′-deoxyuridine for 10 minutes at 37° C. and fixed with Smart Tube proteomic stabilizer. 1-2×10^6 cells were washed twice with cell staining media (CSM; 0.5% BSA, 0.02% sodium azide in PBS), permeablized with cold, 0.01% saponin in PBS, barcoded using the Cell-ID 20-Plex Pd Barcoding Kit (Fluidigm), incubated for 30 minutes at room temperature, washed again 3× with CSM. Cells were then incubated with Fc blocking reagent (10 minutes at room temperature; RT) after which a cocktail of extracellular antibodies (Table 14 below) were added (50 minutes at RT, with shaking). Cells were washed with CSM, fixed for 15 minutes (10% CSM, 1.5% PFA, in PBS), and washed with CSM. Membrane permeablization was performed with ice cold methanol incubated for 20 minutes at −20° C., followed by washing 1× with PBS and 2× with CSM, and incubation with the intracellular antibody cocktail (Table 10) (50 minutes at RT, with shaking). Cells were then rinsed 2× in CSM, 1× in PBS, and incubated in PBS containing 1.5% PFA and 125 nM iridium intercalator (pentamethylcyclopentadienyl-Ir(III)-dipyridophenazine) (Fluidigm) at 4° C. […]

CCOc1ccc(-c2ccc(-c3cc(C(=O)O)c4cc(F)ccc4n3)cc2)cc1 [Cpd3, 2-(4′-ethoxy-[1,1′-biphenyl]-4-yl)-6-fluoroquinoline-4-carboxylic acid]
induction of p53 signaling pathway and DNA damage [1]: induces the p53 signaling pathway and DNA damage
NK cell function [2]: does not impact NK cell function
tumor burden (luciferase expression by IVIS imaging) [3]: able to reduce the tumor burden in the mice
induction of neutrophil differentiation [4]: significant induction of neutrophil differentiation
